In article PMC7617869, “Molecular glues that inhibit deubiquitylase activity and inflammatory signaling” (Nature Structural & Molecular Biology, 2025):
Several values for one entry are separate records, joined by “and”; a condition that tells them apart may be missing. Identical values can stand only once.

What was measured:
[1] = system: IFNAR1 cell surface levels in MCF10A BRCC45 WT cells; assay: MCF10A BRCC45 WT IFNAR1 cell surface levels (FACS); type: cell-based, human
Protocol: (§1) To study the direct effect of BRISC DUB inhibitors, IFNAR1 surface levels were measured using flow cytometry (FACS) analysis. For this purpose, MCF10A WT and MCF10A BRCC45 KO cells expressing […]
(§2) BRCC45 WT or BRCC45 R137A were used. […]
(§3) minutes prior to the addition of 50 ng/mL of hIFN-Iα for various time points (45 minutes and 90 minutes).
(§4) After IFN treatment, cells were dissociated from plate using cell dissociation Buffer (ThermoFisher Scientific, #13150016) and were stained with LIVE/DEAD™ Fixable Violet Dead Cell Stain Kit, for 405 nm excitation (ThermoFisher Scientific, #L34963) for 30 minutes, as per the kit protocol. The cells were then washed using FACS buffer (DPBS, 1% BSA, 2 mM EDTA, 0.09% sodium azide) and transferred to 96-well round bottom plates. Resuspended cells were divided into three repeats for each sample, each was surface stained for 1 hour at 4 °C with: 1. Human IFN-alpha/beta R1 Antibody (R&D systems, #MAB245), 2. Mouse IgG1 Isotype Control (R&D systems, #MAB002), 3. FACS buffer (control cells).
(§5) Following incubation, cells were washed once with FACS buffer and were labelled for 30 minutes at 4 °C with either Biotin-SP-conjugated AffiniPure Donkey Anti-Mouse IgG (H+L) (Jackson Immunoresearch Laboratories) for samples 1 and 2 or with FACS buffer for sample 3. Cells were washed twice with FACS buffer and were labelled for 15 minutes at 4 °C with either R-Phycoerythrin-conjugated Streptavidin (Jackson Immunoresearch Laboratories) for samples 1 and 2 or with FACS buffer for sample 3. Cells were washed 3 times with FACS buffer and were analysed by FACS (MACSQuant, Miltenyi Biotec). For each sample from group 1 the Geo mean fluorescence intensity (MFI) of its isotype sample was reduced. IFNAR1 cell surface percentage was calculated by 100*(MFI

BRISC = target: T1, BRISC (Homo sapiens, UniProt P46736+Q15018+Q9NXR7); assay: Michaelis–Menten analysis of BRISC inhibition; type: biochemical
T1 construct: made in house; host or cells: Spodoptera frugiperda (Sf9) insect cells, MultiBac
Protocol: IQF assays were performed in DUB reaction buffer containing 50 mM HEPES–NaOH pH 7.0, 100 mM NaCl, 0.1 mg ml^−1 BSA, 1 mM DTT and 0.03% v/v Brij-35. […] The final concentration of BRISC WT, all BRISC mutants, HsBRISCΔLoop, MmBRISC and DrBRISCΔNΔC was 1 nM. Other enzymes were tested at the following concentrations: 5 nM ARISC (FL), 10 nM CfBRISCΔNΔC, 250 nM AMSH* (ref. [43]), 500 nM USP2 and 1 μM trypsin (Sigma, 9002-07-7). For Michaelis–Menten experiments, 1 nM BRISC with 0–1 μM IQF K63-linked diubiquitin substrate was used. Michaelis–Menten analyses and Lineweaver–Burk plots were calculated using GraphPad Prism (version 9.0).

[2] = system: CXCL10 secretion in SSc PBMCs; assay: SSc PBMC CXCL10 ELISA, unstimulated; type: cell-based, human
Protocol: PBMCs in vitro experiments
Peripheral blood mononuclear cells (PBMCs) from healthy and SSc donors were separated using density gradient method (Leucosep™, Greiner Bio-One International) from EDTA anticoagulated peripheral blood; isolated cells were washed twice by PBS. PBMCs were then incubated in RPMI1640 […]
For healthy PBMCs, cells were stimulated with 20 ng/mL of IFN (+/- compounds or DMSO). For SSc PBMCs, cells were in basal conditions with no additional IFN stimulation. Cells were centrifuged at 300 g for 10 minutes. Supernatant was removed and subjected to R&D Systems DY266 Human CXCL10/IP-10 DuoSet ELISA (Biotechne) in duplicates, according to manufacturer’s guidance. Concentration of CXCL10 was determined according to a 4-parameter

[3] = system: IFNAR1 cell surface levels in MCF10A BRCC45 R137A cells; assay: MCF10A BRCC45 R137A IFNAR1 cell surface levels (FACS); type: cell-based, human
Protocol: as §1, §2, §3, §4, §5

## O=C(NC1CCNCC1)c1nn(C(=O)c2c(Cl)cccc2Cl)cc1NC(=O)c1c(Cl)cccc1Cl [JMS-175-2]
[1]; BRCC45 KO + BRCC45 WT, IFN + compound, No IFN about 100
  IFNAR1 cell surface levels (Fig. 5g): 38.381 and 37.8977 and 40.435
[1]; BRCC45 WT cells, IFN 50 ng/ml, 5 μM, 90 min
  IFNAR1 cell surface levels: reduction in IFNAR1 cell surface levels
BRISC; di-Ub-TAMRA 31.2 nM, inhibitor 48 nM
  Initial velocity (FU/min): 124.7 FU/min and 137.4 FU/min and 146.6 FU/min
BRISC; di-Ub-TAMRA 31.2 nM, inhibitor 195 nM
  Initial velocity (FU/min): 137.4 FU/min and 132.5 FU/min and 144.8 FU/min
BRISC; di-Ub-TAMRA 31.2 nM, inhibitor 781 nM
  Initial velocity (FU/min): 114 FU/min and 123.2 FU/min and 122.2 FU/min
BRISC; di-Ub-TAMRA 31.2 nM, inhibitor 3.12 μM
  Initial velocity (FU/min): 80.48 FU/min and 77.42 FU/min and 88.2 FU/min
BRISC; di-Ub-TAMRA 31.2 nM, inhibitor 12.5 μM
  Initial velocity (FU/min): 62.2 FU/min and 65.87 FU/min and 55.25 FU/min
BRISC; di-Ub-TAMRA 31.2 nM, inhibitor 50 μM
  Initial velocity (FU/min): 31.39 FU/min and 49.47 FU/min and 41.04 FU/min
BRISC; di-Ub-TAMRA 62.5 nM, inhibitor 48 nM
  Initial velocity (FU/min): 222.1 FU/min and 242.3 FU/min and 243.8 FU/min
BRISC; di-Ub-TAMRA 62.5 nM, inhibitor 195 nM
  Initial velocity (FU/min): 205.5 FU/min and 232 FU/min and 265.7 FU/min
BRISC; di-Ub-TAMRA 62.5 nM, inhibitor 781 nM
  Initial velocity (FU/min): 172.4 FU/min and 226.1 FU/min and 228.4 FU/min
BRISC; di-Ub-TAMRA 62.5 nM, inhibitor 3.12 μM
  Initial velocity (FU/min): 160.2 FU/min and 117.4 FU/min and 160.5 FU/min
BRISC; di-Ub-TAMRA 62.5 nM, inhibitor 12.5 μM
  Initial velocity (FU/min): 80.26 FU/min and 123.7 FU/min and 100.7 FU/min
BRISC; di-Ub-TAMRA 62.5 nM, inhibitor 50 μM
  Initial velocity (FU/min): 43.48 FU/min and 66.23 FU/min and 64.63 FU/min
BRISC; di-Ub-TAMRA 125 nM, inhibitor 48 nM
  Initial velocity (FU/min): 476.9 FU/min and 540.8 FU/min and 503.9 FU/min
BRISC; di-Ub-TAMRA 125 nM, inhibitor 195 nM
  Initial velocity (FU/min): 474.4 FU/min and 538.4 FU/min and 481.2 FU/min
BRISC; di-Ub-TAMRA 125 nM, inhibitor 781 nM
  Initial velocity (FU/min): 402.8 FU/min and 468.4 FU/min and 474 FU/min
BRISC; di-Ub-TAMRA 125 nM, inhibitor 3.12 μM
  Initial velocity (FU/min): 310.9 FU/min and 277.7 FU/min and 256.8 FU/min
BRISC; di-Ub-TAMRA 125 nM, inhibitor 12.5 μM
  Initial velocity (FU/min): 183.3 FU/min and 175.6 FU/min and 208.5 FU/min
BRISC; di-Ub-TAMRA 125 nM, inhibitor 50 μM
  Initial velocity (FU/min): 67.12 FU/min and 88.75 FU/min and 84.05 FU/min
BRISC; di-Ub-TAMRA 250 nM, inhibitor 48 nM
  Initial velocity (FU/min): 886 FU/min and 905.7 FU/min and 906.9 FU/min
BRISC; di-Ub-TAMRA 250 nM, inhibitor 195 nM
  Initial velocity (FU/min): 866.4 FU/min and 900.9 FU/min and 960.9 FU/min
BRISC; di-Ub-TAMRA 250 nM, inhibitor 781 nM
  Initial velocity (FU/min): 740.9 FU/min and 834.7 FU/min and 869 FU/min
BRISC; di-Ub-TAMRA 250 nM, inhibitor 3.12 μM
  Initial velocity (FU/min): 573.6 FU/min and 456.6 FU/min and 483.6 FU/min
BRISC; di-Ub-TAMRA 250 nM, inhibitor 12.5 μM
  Initial velocity (FU/min): 283.5 FU/min and 316 FU/min and 354.2 FU/min
BRISC; di-Ub-TAMRA 250 nM, inhibitor 50 μM
  Initial velocity (FU/min): 119.1 FU/min and 114.6 FU/min and 160 FU/min
BRISC; di-Ub-TAMRA 500 nM, inhibitor 195 nM
  Initial velocity (FU/min): 1677 FU/min and 3345 FU/min and 1765 FU/min
BRISC; di-Ub-TAMRA 500 nM, inhibitor 3.12 μM
  Initial velocity (FU/min): 1143 FU/min and 881.4 FU/min and 1578 FU/min
BRISC; di-Ub-TAMRA 500 nM, inhibitor 12.5 μM
  Initial velocity (FU/min): 579 FU/min and 1146 FU/min and 683.3 FU/min
BRISC; di-Ub-TAMRA 1000 nM, inhibitor 48 nM
  Initial velocity (FU/min): 3019 FU/min and 3362 FU/min and 3486 FU/min
BRISC; di-Ub-TAMRA 1000 nM, inhibitor 195 nM
  Initial velocity (FU/min): 3093 FU/min and 3236 FU/min and 3210 FU/min
BRISC; di-Ub-TAMRA 1000 nM, inhibitor 781 nM
  Initial velocity (FU/min): 2371 FU/min and 2828 FU/min and 2787 FU/min
BRISC; di-Ub-TAMRA 1000 nM, inhibitor 3.12 μM
  Initial velocity (FU/min): 1731 FU/min and 1418 FU/min and 1905 FU/min
BRISC; di-Ub-TAMRA 1000 nM, inhibitor 12.5 μM
  Initial velocity (FU/min): 1009 FU/min and 1193 FU/min and 1032 FU/min
BRISC; di-Ub-TAMRA 1000 nM, inhibitor 50 μM
  Initial velocity (FU/min): 371.3 FU/min and 640.2 FU/min and 667.9 FU/min
BRISC; enzyme activity at different substrate concentrations
  mode of inhibition: not competitive inhibitors
[2]; SSc donor ID 68
  CXCL10, SSc donor PBMCs (Fig. 6d): 66.733
[2]; SSc donor ID 78
  CXCL10, SSc donor PBMCs (Fig. 6d): 0
[2]; SSc donor ID 79
  CXCL10, SSc donor PBMCs (Fig. 6d): 0
[2]; SSc donor ID 142
  CXCL10, SSc donor PBMCs (Fig. 6d): 7.1246
[2]; SSc donor ID 205
  CXCL10, SSc donor PBMCs (Fig. 6d): 83.3318
[2]; SSc donor ID 219
  CXCL10, SSc donor PBMCs (Fig. 6d): 3.3086
[2]; SSc donor ID 244
  CXCL10, SSc donor PBMCs (Fig. 6d): 0
[2]; basal, nonstimulated SSc PBMCs, 16 h
  CXCL10 secretion: reduced CXCL10 secretion
[3]; BRCC45 KO + BRCC45 R137A, IFN + compound, No IFN about 100
  IFNAR1 cell surface levels (Fig. 5g): 50.1158 and 49.56 and 49.1431
[3]; BRCC45 R137A cells, IFN 50 ng/ml, 5 μM, 90 min
  IFNAR1 cell surface levels: not reduced
